# Test results: patent publication US10206937B2, “Boronic acid derivatives and therapeutic uses thereof” (Qpex Biopharma, Inc., priority 2014, dated 2019)
# Test system: strains of Enterobacteriaceae producing various carbapenemases (class A, D and B; 104 strains)
# Experiment: Antibiotics potentiation by Compound 27 (MIC; meropenem, doripenem, ertapenem, cefepime)
# Format: cell-based
# Conditions: + 27 = with Compound 27 at fixed 4 μg/ml
smiles,measurement,setting,value
C[C@@H](O)[C@H]1C(=O)N2C(C(=O)O)=C(S[C@@H]3CN[C@H](CNS(N)(=O)=O)C3)[C@H](C)[C@H]12 [D],MIC,"strain KP1081 Klebsiella pneumoniae (NDM-1, TEM-1, SHV-11, CMY-6, CTX-M-15)",Z (MIC of greater than 10 μg/mL)
same,MIC,"strain KP1082 Klebsiella pneumoniae (KPC-2, SHV-1)",Y (MIC of 1 μg/mL to 10 μg/mL)
same,MIC,"strain KP1083 Klebsiella pneumoniae (KPC-3, SHV-1, TEM-1)",Y (MIC of 1 μg/mL to 10 μg/mL)
same,MIC,"strain KP1084 Klebsiella pneumoniae (KPC-3, SHV-11, TEM-1)",Z (MIC of greater than 10 μg/mL)
same,MIC,"strain KP1086 Klebsiella pneumoniae (OXA-48, CTX-M-15, TEM, SHV)",Z (MIC of greater than 10 μg/mL)
same,MIC,"strain KP1087 Klebsiella pneumoniae (KPC-2, CTX-M-15, SHV-11, TEM-1)",Z (MIC of greater than 10 μg/mL)
same,MIC,"strain KP1088 Klebsiella pneumoniae (KPC-3, SHV-11, TEM-1)",Y (MIC of 1 μg/mL to 10 μg/mL)
same,MIC,"strain KP1089 Klebsiella pneumonias (OXA-181, CTX-M-15, TEM, SHV)",Y (MIC of 1 μg/mL to 10 μg/mL)
same,MIC,strain KP1095 Klebsiella pneumoniae (KPC-2 TEM-1 SHV-1),Y (MIC of 1 μg/mL to 10 μg/mL)
same,MIC,strain KP1096 Klebsiella pneumoniae (KPC-2 TEM-181 SHV-11),Y (MIC of 1 μg/mL to 10 μg/mL)
same,MIC,strain KP1097 Klebsiella pneumonias (IMP-1),Z (MIC of greater than 10 μg/mL)
same,MIC,strain KP1098 Klebsiella pneumoniae (IMP-26),Z (MIC of greater than 10 μg/mL)
same,MIC,strain KP1104 Klebsiella pneumoniae (KPC TEM),Z (MIC of greater than 10 μg/mL)
same,MIC,strain KP1105 Klebsiella pneumoniae (KPC TEM SHV),Y (MIC of 1 μg/mL to 10 μg/mL)
same,MIC,strain KP1159 Klebsiella pneumoniae (SHV-1(2b); CTX-M-15; IMP-4),Z (MIC of greater than 10 μg/mL)
same,MIC,strain KP1160 Klebsiella pneumoniae (SHV-28(2be); CTX-M-15; IMP-26),Z (MIC of greater than 10 μg/mL)
same,MIC,strain KP1161 Klebsiella pneumoniae (NDM-1),Z (MIC of greater than 10 μg/mL)
same,MIC,strain KP1164 Klebsiella pneumoniae (SHV-12(2be); VIM-1),Z (MIC of greater than 10 μg/mL)
same,MIC,strain KP1165 Klebsiella pneumoniae (SHV-11(2b); CTX-M-15; VIM-27),Z (MIC of greater than 10 μg/mL)
same,MIC,strain KP1166 Klebsiella pneumoniae (SHV-5(2be); VIM-26),Z (MIC of greater than 10 μg/mL)
same,MIC,strain KP1167 Klebsiella pneumoniae (SHV-12(2be); VIM-1),X (MIC of less than 1 μg/mL)
same,MIC,strain KP1169 Klebsiella pneumoniae (SHV-11(2b); VIM-1),Z (MIC of greater than 10 μg/mL)
same,MIC,strain KP1170 Klebsiella pneumoniae (SHV-11(2b); CTX-M-15; NDM-1),Z (MIC of greater than 10 μg/mL)
same,MIC,strain KP1172 Klebsiella pneumoniae (SHV-31(2be); DHA-1; VIM-1),Z (MIC of greater than 10 μg/mL)
same,MIC,strain KP1173 Klebsiella pneumoniae (TEM-33(2br); CTX-M-15; IMP-1),Y (MIC of 1 μg/mL to 10 μg/mL)
same,MIC,strain KP1174 Klebsiella pneumoniae (CTX-M-14; IMP-1),Z (MIC of greater than 10 μg/mL)
same,MIC,strain KP1175 Klebsiella pneumoniae (SHV-OSBL(2b); VIM-1),Z (MIC of greater than 10 μg/mL)
same,MIC,"strain KP1177 Klebsiella pneumoniae (SHV-OSBL(2b), TEM-OSBL(2b); CTX-M-15; NDM-1)",Z (MIC of greater than 10 μg/mL)
same,MIC,strain KP1178 Klebsiella pneumoniae (SHV-OSBL(2b;) TEM-OSBL(2b); CTX-M-15; NDM-1),Z (MIC of greater than 10 μg/mL)
same,MIC,"strain KP1179 Klebsiella pneumoniae (SHV-12(2be), TEM-OSBL(2b); CTX-M-15; NDM-7)",Z (MIC of greater than 10 μg/mL)
same,MIC,"strain KP1180 Klebsiella pneumoniae (SHV-OSBL(2b), TEM-OSBL(2b); CTX-M-15; DHA-1; IMP-26)",Y (MIC of 1 μg/mL to 10 μg/mL)
same,MIC,strain KP1181 Klebsiella pneumoniae (SHV-OSBL(2b); CTX-M-15; IMP-26),Y (MIC of 1 μg/mL to 10 μg/mL)
same,MIC,"strain KP1183 Klebsiella pneumoniae (SHV-OSBL(2b), TEM-OSBL(2b); CTX-M-15; NDM-1)",Z (MIC of greater than 10 μg/mL)
same,MIC,strain KP1184 Klebsiella pneumoniae (SHV-OSBL(2b); IMP-1),Y (MIC of 1 μg/mL to 10 μg/mL)
same,MIC,"strain KP1185 Klebsiella pneumoniae (SHV-OSBL(2b), TEM-OSBL(2b); IMP-4)",Z (MIC of greater than 10 μg/mL)
same,MIC,strain KP1186 Klebsiella pneumoniae (CTX-M-15; NDM-1),Z (MIC of greater than 10 μg/mL)
same,MIC,"strain KP1187 Klebsiella pneumoniae (SHV-55(2be), TEM-OSBL(2b); CTX-M-15; NDM-1)",Z (MIC of greater than 10 μg/mL)
same,MIC,strain KP1188 Klebsiella pneumoniae (SHV-OSBL(2b); CTX-M-15; NDM-1),Z (MIC of greater than 10 μg/mL)
same,MIC,strain KP1189 Klebsiella pneumoniae (TEM-OSBL(2b); CTX-M-15; CTX-M-27; NDM-1),Z (MIC of greater than 10 μg/mL)
same,MIC,strain KPM1123 Klebsiella pneumoniae (KPC-2 TEM SHV),Y (MIC of 1 μg/mL to 10 μg/mL)
same,MIC,strain KPM1202 Klebsiella pneumoniae (KPC SHV TEM),Y (MIC of 1 μg/mL to 10 μg/mL)
same,MIC,strain KPM1203 Klebsiella pneumoniae (KPC SHV TEM),Y (MIC of 1 μg/mL to 10 μg/mL)
same,MIC,strain KPM1344 Klebsiella pneumoniae (VIM-1),Y (MIC of 1 μg/mL to 10 μg/mL)
same,MIC,strain KPM1345 Klebsiella pneumoniae (VIM-1 SHV),Z (MIC of greater than 10 μg/mL)
same,MIC,strain KPM1347 Klebsiella pneumoniae (NDM-1 SHV CTX-M-15),Z (MIC of greater than 10 μg/mL)
same,MIC,"strain KX1017 Klebsiella oxytoca (KPC-2, OXA-2, SHV-30)",Y (MIC of 1 μg/mL to 10 μg/mL)
same,MIC,"strain KX1018 Klebsiella oxytoca (KPC-2, SHV-40, OXY-1)",Y (MIC of 1 μg/mL to 10 μg/mL)
same,MIC,"strain KX1019 Klebsiella oxytoca (KPC-2, OXA-2)",Y (MIC of 1 μg/mL to 10 μg/mL)
same,MIC,strain PM1024 Proteus mirabilis (TEM-1(2b); CMY-16; VIM-1),Z (MIC of greater than 10 μg/mL)
same,MIC,strain PM1026 Proteus mirabilis (DHA-1; IMP-26),Z (MIC of greater than 10 μg/mL)
same,MIC,strain PM1027 Proteus mirabilis (VIM-5),Y (MIC of 1 μg/mL to 10 μg/mL)
same,MIC,strain SM1023 Serratia marcescens (VIM-4),Z (MIC of greater than 10 μg/mL)
